According to article PMC4923153, “Protection of Primary Dopaminergic Midbrain Neurons by GPR139 Agonists Supports Different Mechanisms of MPP^+ and Rotenone Toxicity” (Frontiers in Cellular Neuroscience, 2016):
Values joined by “and” are separate entries in the source; they are usually repeats but may differ in a detail not shown here. Equal values may be shown once. Read-outs that look alike come from different tables or passages of the source.

Legend:
[1] = test system: primary DA midbrain neurons; experiment: Protection of primary DA midbrain neurons against MPP+ toxicity (TH-positive neuron count); assay type: cell-based, mice
Protocol: Experiments were conducted in accordance with the ethical guidelines of H. Lundbeck A/S and the Danish legislation of animal use for scientific procedures. Cell culture was basically performed as described (Nagel et al., [2008]), with few modifications. Briefly, the mesencephalon floor was dissected from embryonic day (E) 13 mice, tissue pieces collected in HBBS, transferred to 0.1% trypsin, 0.05% DNAse (Sigma-Aldrich DN25–1G) and incubated at 37°C in a humidified atmosphere with 5% CO2 for 20 min; washed in DNAse, homogenized and centrifuged at 200× g, resuspended in medium (DMEM (Gibco 41965–039), 10% FCS, 1% P/S (Gibco, 15140–122), l.5% HEPES (Gibco, 15630–056), 1% Sodium Pyruvate (Gibco, 11360–039)) and plated on poly-L-lysine coated 96-well dishes. The medium was switched to neurobasal medium after 90 min (neurobasal (Gibco 21103–049) with 1% P/S, 2% B27 (Gibco, 17504–044), 1.25% 0.5 mM L-glutamine (Gibco, 25030–024)). After 6 days in vitro (DIV), cultures were treated with 1 μM of three different GPR139 agonists and in some experiments, concomitantly, with 10 μM of the antagonist for1 h, before exposing them to 0–1 μM MPP^+, 0–50 μM 6-OHDA or 0–100 nM rotenone for 24 h. For the MPP^+ treated cultures, it was also tested whether the effect of the GPR139 agonists could be blocked by concomitantly applying 10 μM GPR139 antagonist (IC50 3 μM). Subsequently, cells were fixed in 4% PFA/PBS for 10 min, washed with PBS, incubated in 0.5% BSA/0.1% Triton-X/5% porcine serum for 20 min, and incubated for 24 h in rabbit anti-tyrosine hydroxylase antibodies (1:1000 in PBS, Millipore AB152); washed 2 × 5 min in PBS. Secondary antibodies (Alexa 488 rabbit) were applied 1:200 in PBS with 0.2 μg/ml Hoechst dye for 1 h and washed 2 × 5 min in PBS. One drop of DAKO fluorescent mounting medium were applied into each well. Plates were stored at 4°C until tyrosine-hydroxylase-positive (TH-positive) neurons were counted using a Thermo Scientific Cellomics® ArrayScan® VTI HCS Reader. Results were normalized against control condition and compared. Experiments were only included in the evaluation if at least 30% cell death was induced at the highest toxin concentration compared to non-treated control wells. To ensure that only healthy primary cultures were assessed, we furthermore excluded experiments with total cell counts below Mean minus standard deviation (SD) of the summarized experiments. […]
To examine whether GPR139 agonists protect against toxin-induced DA cell death, we first treated cultured DA midbrain neurons with the GPR139 agonists and MPP^+ . Subsequently, we determined survival of TH-positive neurons.
Figure 8 Three different GPR139 surrogate agonists protect primary dopaminergic (DA) midbrain neurons against 1-methyl-4-phenyl-pyridinium ionMPP^+ toxicity. […] TH-positive neurons were counted and normalized to numbers under control conditions. […] Each data point is calculated from 12 (0 μM and 1 μM MPP^+ concentrations); 4 (0.125 μM); 7 (0.25 μM); or 8 (0.5 μM) independent measurements.
Primary midbrain cultures were pretreated with the indicated amount of GPR139 agonist compound 3 and with either vehicle ( [drawing 5] ), or 1 μM MPP^+ ( [drawing 6] ); or MPP^+ with 10 μM of the antagonist compound 4 ( [drawing 7] ), or with the antagonist compound 4 alone ( [drawing 8] ). The number of TH-positive neurons was determined 24 h later and normalized to control conditions. […]

[2] = test system: primary DA midbrain neurons; experiment: Protection of primary DA midbrain neurons against 6-OHDA toxicity (TH-positive neuron count); assay type: cell-based, mice; details: 1 μM agonist 1 h, 0-50 μM 6-OHDA 24 h
Protocol: (§1) Experiments were conducted in accordance with the ethical guidelines of H. Lundbeck A/S and the Danish legislation of animal use for scientific procedures. Cell culture was basically performed as described (Nagel et al., [2008]), with few modifications. […] Plates were stored at 4°C until tyrosine-hydroxylase-positive (TH-positive) neurons were counted using a Thermo Scientific Cellomics® ArrayScan® VTI HCS Reader. […] To ensure that only healthy primary cultures were assessed, we furthermore excluded experiments with total cell counts below Mean minus standard deviation (SD) of the summarized experiments. […]
Neuronal midbrain cultures were pretreated with 1 μM of either one of the agonists compound 1 ( [drawing 9] ), compound 2 ( [drawing 10] ), or compound 3 ( [drawing 11] ), or vehicle ( [drawing 12] ) for 1 h, followed by treatment with the indicated concentrations of 6-hydroxydopamine (6-OHDA) for 24 h. TH-positive neurons were counted and normalized to control numbers.

[3] = test system: primary DA midbrain neurons; experiment: Protection of primary DA midbrain neurons against rotenone toxicity (TH-positive neuron count); assay type: cell-based, mice; details: 1 μM agonist 1 h, 0-100 nM rotenone 24 h, n = 4
Protocol: as §1
Mesencephalic cultures were treated with 1 μM of either one of the GPR139 agonists compound 1 ( [drawing 13] ), compound 2 ( [drawing 14] ), or compound 3 ( [drawing 15] ), or vehicle ( [drawing 16] ) for 1 h before exposing them to 0–100 nM of rotenone. […] TH-positive neurons were counted and normalized to control numbers (100%).

[4] = target: T1, human GPR139 receptor (Homo sapiens, UniProt Q6DWJ6); parameters: method as in Shi et al., 2011; details: Ca2+ mobilization; ref Shi et al., 2011; read-out: EC50 (GPR139 agonist); cited from earlier work
T1 construct: expressed in transfected cells; host or cells: CHO-K1
T1 sequence (Q6DWJ6 1-353): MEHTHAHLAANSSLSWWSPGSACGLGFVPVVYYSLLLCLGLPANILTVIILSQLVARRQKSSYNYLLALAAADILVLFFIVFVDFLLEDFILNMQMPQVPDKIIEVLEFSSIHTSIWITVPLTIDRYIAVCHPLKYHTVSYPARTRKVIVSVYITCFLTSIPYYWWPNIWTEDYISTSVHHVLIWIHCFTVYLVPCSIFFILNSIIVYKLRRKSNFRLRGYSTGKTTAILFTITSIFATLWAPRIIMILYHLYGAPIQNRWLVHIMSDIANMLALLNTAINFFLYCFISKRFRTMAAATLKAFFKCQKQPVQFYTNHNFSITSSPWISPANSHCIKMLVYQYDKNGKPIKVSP

[5] = target: DAT (Homo sapiens, UniProt Q01959); parameters: method as in Shi et al., 2011; details: 10 μM; ref Shi et al., 2011; cited from earlier work
Chain of DAT (Q01959 whole entry, species assumed): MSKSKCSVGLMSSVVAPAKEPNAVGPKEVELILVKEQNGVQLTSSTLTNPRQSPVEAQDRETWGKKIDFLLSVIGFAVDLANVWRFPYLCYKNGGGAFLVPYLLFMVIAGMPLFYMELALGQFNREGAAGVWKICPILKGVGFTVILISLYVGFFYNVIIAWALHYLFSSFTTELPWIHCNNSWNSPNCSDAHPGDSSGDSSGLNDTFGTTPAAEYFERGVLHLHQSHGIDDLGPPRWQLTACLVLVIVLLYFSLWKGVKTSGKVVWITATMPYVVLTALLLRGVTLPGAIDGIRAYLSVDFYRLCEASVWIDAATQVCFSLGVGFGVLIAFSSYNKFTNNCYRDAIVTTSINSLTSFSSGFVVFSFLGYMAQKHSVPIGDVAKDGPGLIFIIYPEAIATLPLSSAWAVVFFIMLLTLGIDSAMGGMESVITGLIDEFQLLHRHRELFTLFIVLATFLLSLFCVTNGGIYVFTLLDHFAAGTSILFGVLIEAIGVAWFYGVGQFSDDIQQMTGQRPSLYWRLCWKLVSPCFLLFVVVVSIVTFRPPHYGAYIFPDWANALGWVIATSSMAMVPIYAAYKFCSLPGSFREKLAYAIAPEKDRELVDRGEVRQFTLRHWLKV

[6] = target: norepinephrine transporter (Homo sapiens, UniProt P23975); parameters: method as in Shi et al., 2011; details: 10 μM; ref Shi et al., 2011; cited from earlier work
Chain of norepinephrine transporter (P23975 whole entry, species assumed): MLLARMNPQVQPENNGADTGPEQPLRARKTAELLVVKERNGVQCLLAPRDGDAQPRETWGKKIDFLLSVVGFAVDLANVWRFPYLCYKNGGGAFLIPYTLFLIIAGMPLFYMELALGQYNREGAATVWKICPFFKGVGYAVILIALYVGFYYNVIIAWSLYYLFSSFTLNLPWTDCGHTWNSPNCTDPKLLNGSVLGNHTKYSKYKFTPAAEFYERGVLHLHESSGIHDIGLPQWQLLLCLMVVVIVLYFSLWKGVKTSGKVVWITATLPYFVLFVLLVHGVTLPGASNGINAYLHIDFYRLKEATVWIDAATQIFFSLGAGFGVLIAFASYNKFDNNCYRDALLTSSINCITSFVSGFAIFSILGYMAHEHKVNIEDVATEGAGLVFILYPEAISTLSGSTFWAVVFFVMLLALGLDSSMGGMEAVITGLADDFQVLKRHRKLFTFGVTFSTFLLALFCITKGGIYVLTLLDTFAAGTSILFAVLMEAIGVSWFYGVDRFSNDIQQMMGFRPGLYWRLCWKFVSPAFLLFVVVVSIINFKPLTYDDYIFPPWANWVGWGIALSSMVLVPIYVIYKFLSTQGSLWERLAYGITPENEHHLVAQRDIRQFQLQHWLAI

[7] = parameters: method as in Shi et al., 2011; details: ref Shi et al., 2011; cited from earlier work
[8] = test system: differentiated SH-SY5Y neurons; details: 24 h incubation; ref Giordano et al., 2012; cited from earlier work
[9] = target: T1, human GPR139 receptor; experiment: GPR139 calcium mobilization assay (CHO-K1 cells stably expressing the receptor); assay type: cell-based; details: inhibition of agonist-induced stimulation (compound 1 at EC85); read-out: IC50 (GPR139 antagonist)
Protocol: EC50 and IC50 for all compounds were determined as described (Shi et al., [2011]).
All compounds were further characterized using GPR139-based Ca^2+ mobilization assays (Figure 5).
Figure 5 Additional characterization of GPR139 compounds using kinetic fluorescence measurements and concentration-response determination in calcium mobilization assays. (A–D) Examples for the kinetic of relative fluorescence units (RFU) for compound 1 and 4 and related controls, involving a two-step addition protocol. (A) Cellular fluorescence response to addition of buffer (approximately at time 0:00 min) and a second addition of buffer at 3:20 min. (B) Cellular fluorescence response to addition of the Ca^2+ ionophore and reference compound for complete release of Ca^2+ from intracellular stores, ionomycin. (C) Cellular response to addition of 10 μM compound 1 at time 0:00. (D) Cellular fluorescence in response to antagonist compound 4 (at 0:00, 50 μM) and addition of agonist compound 1 at EC85 concentration. […]
Standard molecular cloning techniques were used to generate Chinese hamster ovary (CHO-K1) cells stably expressing the human GPR139 receptor. […] Calcium flux was measured using a Hamamatsu FDSS7000 imaging-based plate reader (Hamamatsu Photonics) using 480 nm excitation light and emitted fluorescent light passed through a 525 nm emission filter and detected by a CCD camera. […]

[10] = test system: primary DA midbrain neurons; assay type: cell-based, mice; details: 24 h
Protocol: Experiments were conducted in accordance with the ethical guidelines of H. Lundbeck A/S and the Danish legislation of animal use for scientific procedures. Cell culture was basically performed as described (Nagel et al., [2008]), with few modifications. Briefly, the mesencephalon floor was dissected from embryonic day (E) 13 mice, tissue pieces collected in HBBS, transferred to 0.1% trypsin, 0.05% DNAse (Sigma-Aldrich DN25–1G) and incubated at 37°C in a humidified atmosphere with 5% CO2 for 20 min; washed in DNAse, homogenized and centrifuged at 200× g, resuspended in medium (DMEM (Gibco 41965–039), 10% FCS, 1% P/S (Gibco, 15140–122), l.5% HEPES (Gibco, 15630–056), 1% Sodium Pyruvate (Gibco, 11360–039)) and plated on poly-L-lysine coated 96-well dishes. The medium was switched to neurobasal medium after 90 min (neurobasal (Gibco 21103–049) with 1% P/S, 2% B27 (Gibco, 17504–044), 1.25% 0.5 mM L-glutamine (Gibco, 25030–024)). […] Plates were stored at 4°C until tyrosine-hydroxylase-positive (TH-positive) neurons were counted using a Thermo Scientific Cellomics® ArrayScan® VTI HCS Reader. […] To ensure that only healthy primary cultures were assessed, we furthermore excluded experiments with total cell counts below Mean minus standard deviation (SD) of the summarized experiments. […]

[11] = test system: SH-SY5Y cells; parameters: method as in Song et al., 2012; details: ref Song et al., 2012; cited from earlier work

**Q.** For `COc1cc(OC)cc(C(=O)NNC(=O)Nc2cccc3ccccc23)c1` [compound 1, 2-(3,5-Dimethoxybenzoyl)-N-(1-naphthyl)-hydrazinecarboxamide], which “protection against MPP+ toxicity” value ([1]; 1 μM agonist 1 h, 1 μM MPP+ 24 h, p ≤ 0.05 vs vehicle) is on record?
**A.** significant

**Q.** And the “protection against 6-OHDA toxicity” value [2]?
**A.** do not protect

**Q.** And the “protection against rotenone toxicity” value [3]?
**A.** do not protect

**Q.** And the EC50 [4]?
**A.** 0.039 µM

**Q.** And the “inhibition of binding to the DAT” value [5]?
**A.** 4%

**Q.** What about the “inhibition of binding to the norepinephrine transporter” value [6] of the same compound?
**A.** −8%

**Q.** What about the “ADME properties for in vivo testing” value [7] of the same compound?
**A.** does not hold the ADME properties necessary for in vivo testing

**Q.** With `NCCc1cc(O)c(O)cc1O` [6-OHDA, 6-hydroxydopamine] as the compound, how does the “concentration giving 50% cell death” value [8] read?
**A.** 100 µM

**Q.** What does the source list for `Cc1c(CC(Cl)(Cl)Cl)c2c(n1-c1ccc(F)cc1)CCCC2=O` [compound 4, 1-(4-Fluoro-phenyl)-2-methyl-3-(2,2,2-trichloro-ethyl)-1,5,6,7-tetrahydro-indol-4-one, reference compound]?
**A.** IC50 [9]: 7.4 µM and 3 µM; effect of antagonist on protection by the agonists against MPP+ ([1]; 10 μM antagonist co-applied with agonist, 1 μM MPP+): blocked the protective effect; effect of antagonist alone on DA cell survival ([1]; 10 μM antagonist, no MPP+): did not have an effect

**Q.** Which “average DA neuronal cell death” value ([10]; 100 nM rotenone) does the source give for `C=C(C)[C@H]1Cc2c(ccc3c2O[C@@H]2COc4cc(OC)c(OC)cc4[C@@H]2C3=O)O1` [rotenone] here?
**A.** 60%

**Q.** What about the “concentration giving 50% cell death” value [8] of the same compound?
**A.** 0.005 µM

**Q.** With `C[n+]1ccc(-c2ccccc2)cc1` [MPP^+, 1-methyl-4-phenylpyridinium] as the compound, how does the “average DA neuronal cell death” value ([10]; 1 μM MPP+) read?
**A.** 40%

**Q.** And the “concentration giving 50% cell death” value [8]?
**A.** 5000 µM

**Q.** With `COc1ccc(CCc2cc(OC)c(O)c(OC)c2)cc1OC` [Chrysotoxine] as the compound, how does the “antagonism of MPP+ toxicity” value [11] read?
**A.** could antagonize

**Q.** What about the “antagonism of rotenone toxicity” value [11] of the same compound?
**A.** not rotenone
